Test results from article PMC9927415, “Tyrosine Kinase Inhibitors Display Potent Activity against Cryptosporidium parvum” (Microbiology Spectrum, 2022).
Read-outs that look alike come from different tables or passages of the source.

What was measured:
[1] = Host cell cytotoxicity assay (CellTiter-Glo); conditions: human
Experimental: HepG2 cells were grown in Eagle’s Minimum Essential Medium (MEM) containing 10% FBS, 1% nonessential amino acids (NEAA) and 1% penicillin/streptomycin to >50% confluence prior to harvesting. Cells were suspended in media and 3000 cells per well were added onto 384-well clear bottom plates. Prior to addition of the cell suspension, the screening compounds (250 nl) were predispensed into plates using a liquid handler. Plates were incubated for 48 h at 37°C, 5% CO2. After 48 h of incubation, plates were equilibrated at room temperature for 30 min before luminescence signal was measured using CellTiter-Glo Reagent. Plates were kept at room temperature for 10 min to stabilize the signal and then read using a ViewLux luminescence reader. The HepG2 CC50 (from the host cell cytotoxicity assays) and C. parvum mean EC50 (from parasite growth inhibition assays) values were used to calculate selectivity index.

Cryptosporidium parvum = assay: In vitro C. parvum growth inhibition assay (Nluc reporter strain in HCT-8 cells); assay type: cell-based; conditions: 48 h
Experimental: Host intestinal epithelial adenocarcinoma (HCT-8) cells were seeded into 96-well plates and grown to 70% confluence in RPMI medium supplemented with L-glutamine, 10% fetal bovine serum (FBS), 0.1 U/mL penicillin, 0.1 μg/mL streptomycin, 0.25 μg/mL amphotericin B and 1 mM sodium pyruvate. The host cell medium was aspirated and replaced with Cryptosporidium infection media (RPMI containing 2% FBS, 0.1 U/mL penicillin, 0.1 μg/mL streptomycin and 0.25 μg/mL amphotericin B) media prior to infection. The HCT-8 cells were infected with bleached and washed Nluc expressing C. parvum oocysts (2,000 oocysts per well) to which 10 μM compounds were added and plates were incubated for 48 h at 37°C, 5% CO2 and luminescence was measured using the protocol described previously ([14], [58]). […] Negative (no drug) and positive control (10 μM nitazoxanide) wells (three replicates each) were also set-up in the same plate. After the incubation, medium was removed and 100 μL of NanoGlo lysis buffer (Promega) was added to the wells followed by incubation for 15 min at 37°C, 5% CO2. The lysate was suspended by pipetting and 100 μL of NanoGlo lysis buffer containing 1:50 of NanoGlo substrate (Promega) was added to each well. […] For the dose response assay, compounds were tested in triplicate wells in two independent experiments and percent luminescence of no drug was calculated.
EC50 values were calculated using a nonlinear regression (curve fit of log-dose versus response) in GraphPad Prism version 8.

Row | Structure (SMILES) | CC50 at 48 h [1] [µM] | inhibition at 10 µM (Cryptosporidium parvum; 10 μM, read-out: inhibition of C. parvum growth) [%] | inhibition at 10 µM (Cryptosporidium parvum; primary screen, 10 μM compound, three technical replicates, read-out: Mean percent inhibition of C. parvum growth) [%]
1 | Cc1ccc(O)cc1Nc1ccnc2ccc(S(C)(=O)=O)cc12 [Compound 5] | 15.8 | – | –
2 | CC(=O)Oc1ccccc1C(=O)Nc1ncc([N+](=O)[O-])s1 [Nitazoxanide, nitazoxanide, reference compound] | – | > 90 | 94.5
